Experimental data from publication PMC5394417, “Investigating the molecular mechanism of positive and negative allosteric modulators in the calcium-sensing receptor dimer” (Scientific Reports, 2017).

Molecular target: T1, HA-F688A CaSR mutant (Rattus norvegicus, UniProt P48442, F688A)
T1 construct: mGluR5 signal peptide (N); expressed in transfected cells; host or cells: HEK293T
T1 sequence (P48442 20-1079 F688A): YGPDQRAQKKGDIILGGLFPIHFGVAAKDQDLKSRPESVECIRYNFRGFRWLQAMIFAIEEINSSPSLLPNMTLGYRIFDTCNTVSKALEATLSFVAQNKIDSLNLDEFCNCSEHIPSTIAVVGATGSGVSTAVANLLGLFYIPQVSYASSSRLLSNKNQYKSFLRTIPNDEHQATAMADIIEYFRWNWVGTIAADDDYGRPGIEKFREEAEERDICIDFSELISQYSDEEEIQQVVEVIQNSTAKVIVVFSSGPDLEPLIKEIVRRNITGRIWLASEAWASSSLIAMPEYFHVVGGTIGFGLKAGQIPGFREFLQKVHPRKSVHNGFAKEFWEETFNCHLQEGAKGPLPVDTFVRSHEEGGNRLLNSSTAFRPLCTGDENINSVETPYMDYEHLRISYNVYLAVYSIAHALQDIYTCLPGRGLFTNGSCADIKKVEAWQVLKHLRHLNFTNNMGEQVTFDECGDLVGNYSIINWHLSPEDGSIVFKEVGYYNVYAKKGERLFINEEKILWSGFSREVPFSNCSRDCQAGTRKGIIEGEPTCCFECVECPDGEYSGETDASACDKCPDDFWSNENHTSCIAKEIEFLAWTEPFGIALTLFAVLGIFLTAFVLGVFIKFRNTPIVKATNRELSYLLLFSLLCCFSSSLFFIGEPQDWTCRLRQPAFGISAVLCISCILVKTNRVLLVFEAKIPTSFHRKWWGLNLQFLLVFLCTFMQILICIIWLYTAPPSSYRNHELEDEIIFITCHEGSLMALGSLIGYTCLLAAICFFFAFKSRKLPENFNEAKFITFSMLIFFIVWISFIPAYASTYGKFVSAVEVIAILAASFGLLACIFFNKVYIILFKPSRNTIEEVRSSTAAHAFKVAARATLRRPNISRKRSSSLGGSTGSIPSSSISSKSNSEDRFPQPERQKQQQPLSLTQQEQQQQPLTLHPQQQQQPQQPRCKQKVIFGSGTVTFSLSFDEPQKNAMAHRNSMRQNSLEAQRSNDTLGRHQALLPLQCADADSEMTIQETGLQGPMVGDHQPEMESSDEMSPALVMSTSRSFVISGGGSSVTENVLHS
Test: IP-One assay, HEK293T transiently transfected
Assay type: cell-based

- EC50 (Ca^2+ alone): 6.11 mM
- pEC50 ± S.E.M. (Ca^2+ alone): 2.21 ± 0.01
- Max ± S.E.M. (Ca^2+ alone, normalized to maximum response of WT CaSR): 86 ± 3.1%
- EC50 (Ca^2+ with 1 μM NPS R-568): 2.86 mM
- pEC50 ± S.E.M. (Ca^2+ with 1 μM NPS R-568): 2.54 ± 0.02
- Max ± S.E.M. (Ca^2+ with 1 μM NPS R-568, normalized to maximum response with Ca^2+ alone for the construct): 110 ± 9%
- EC50 (Ca^2+ with 5 μM NPS 2143): 8.31 mM
- pEC50 ± S.E.M. (Ca^2+ with 5 μM NPS 2143): 2.08 ± 0.01
- Max ± S.E.M. (Ca^2+ with 5 μM NPS 2143, normalized to maximum response with Ca^2+ alone for the construct): 79 ± 6.9%
Structure (SMILES): [Ca+2] [Ca^2+]
